PubChem BioAssay (NCI)
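Dose response: 5 concentrations. Exposure: 48 h. Format: 96-well plates. Endpoint: linear interpolation; highest concentration if not reached. GI50 = concentration required for 50% inhibition of growth. TGI denotes the concentration required for complete inhibition of growth.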

How the values were obtained:
Test in all cases: inhibition of tumour cell growth, NCI panel, 48 h
[1] = tested on: UO-31 renal
[2] = tested on: MOLT-4 leukemia
[3] = tested on: TK-10 renal
[4] = tested on: SR leukemia
[5] = tested on: OVCAR-5 ovarian
[6] = tested on: CAKI-1 renal
[7] = tested on: KM12 colon
[8] = tested on: OVCAR-4 ovarian
[9] = tested on: HL-60(TB) leukemia
[10] = tested on: PC-3 prostate

Compound	GI50 [1]	TGI [1]	GI50 [2]	TGI [2]	GI50 [3]	TGI [3]	GI50 [4]	TGI [4]	GI50 [5]	TGI [5]	GI50 [6]	TGI [6]	GI50 [7]	TGI [7]	GI50 [8]	TGI [8]	GI50 [9]	TGI [9]	GI50 [10]	TGI [10]
CCN(Cc1ccc(F)cc1)c1ccc(CO)c(C)c1	9.34 µM	25.1 µM	15.5 µM	58.8 µM	0.884 µM	4.2 µM	20.3 µM	58.1 µM	0.856 µM	4.46 µM	3.28 µM	25.5 µM	19.6 µM	45.1 µM	2.46 µM	14.3 µM	9.86 µM	39.3 µM	11.6 µM	32.3 µM
COc1cccc(/C=N/NC(=S)NC2CC3CCC2C3)c1O (stereo not given)	2.3 µM	9.93 µM	10.5 µM	48.3 µM	16.4 µM	31.5 µM	3.08 µM	10.8 µM	44.9 µM	> 100 µM	3.33 µM	15.9 µM	26.3 µM	> 100 µM	1.82 µM	4.46 µM	16.6 µM	60.3 µM	8.5 µM	27 µM
COc1cc(OC)c2nccc(NCCCN(C)C)c2c1[N+](=O)[O-]	–	> 100 µM	–	> 100 µM	–	> 100 µM	–	> 100 µM	–	> 100 µM	–	> 100 µM	–	> 100 µM	–	> 100 µM	–	> 100 µM	–	> 100 µM
Nc1nc(N)c(C=Nc2ccc(Br)cc2)c(Nc2ccc(Br)cc2)n1	6.55 µM	28.1 µM	10.7 µM	28.5 µM	13 µM	37.6 µM	2.61 µM	10.2 µM	9.98 µM	21.5 µM	3.45 µM	18.7 µM	4.22 µM	18.4 µM	10.6 µM	25 µM	15.6 µM	49.2 µM	8.34 µM	26.4 µM
Cc1cc2cc3ccc(N(C)C)cc3nc2cc1N	0.642 µM	5.01 µM	0.438 µM	9.31 µM	1.41 µM	9.44 µM	0.536 µM	5.68 µM	1.26 µM	6.55 µM	0.321 µM	1.35 µM	0.439 µM	2.18 µM	0.904 µM	4.46 µM	0.805 µM	5.09 µM	0.992 µM	4.91 µM
CC(C)N1CCN(Cc2ccc3c(NNC(=O)c4ccccc4)nc4cc(F)ccc4n23)CC1	0.0688 µM	3.14 µM	0.24 µM	2.04 µM	0.216 µM	23.9 µM	0.185 µM	6.83 µM	0.674 µM	6.83 µM	0.249 µM	6.26 µM	0.397 µM	11 µM	0.293 µM	7.71 µM	0.322 µM	1.43 µM	0.402 µM	12.7 µM
CC(=O)N1N=C(c2ccc(Nc3ccnc4cc(Cl)ccc34)cc2)CC1c1ccc(Cl)cc1 (stereo not given)	3.87 µM	> 100 µM	2.42 µM	> 100 µM	> 100 µM	> 100 µM	0.612 µM	> 100 µM	> 100 µM	> 100 µM	> 100 µM	> 100 µM	6.59 µM	> 100 µM	6.92 µM	> 100 µM	3.56 µM	> 100 µM	3.02 µM	> 100 µM
CCOc1cc(Br)c(C(C)NC(=O)c2cccc(OC)c2)cc1OCC (stereo not given)	12.1 µM	> 100 µM	5.64 µM	> 100 µM	28.2 µM	> 100 µM	3.26 µM	> 100 µM	25.4 µM	> 100 µM	13.3 µM	> 100 µM	7.32 µM	> 100 µM	13.2 µM	> 93.5 µM	3.8 µM	> 61.3 µM	12.6 µM	> 100 µM
O=C(O)c1cn(C2CC2)c2cc(N3CCN(C(=O)Nc4nc(-c5ccccc5)cs4)CC3)c(F)cc2c1=O	0.876 µM	> 100 µM	1.61 µM	11.5 µM	3.93 µM	35.1 µM	0.35 µM	73.8 µM	2.36 µM	> 100 µM	3.59 µM	> 100 µM	0.485 µM	23.7 µM	2.93 µM	> 100 µM	1.62 µM	4.41 µM	1.88 µM	> 100 µM
S=c1[nH]nc(Cc2ccccc2)c(=S)[nH]1	–	> 100 µM	–	> 100 µM	–	> 94.1 µM	–	> 100 µM	–	> 100 µM	–	> 100 µM	–	> 100 µM	–	> 100 µM	–	> 100 µM	–	88.2 µM
